In patent publication US6713269B2, “Methods for identifying potential therapeutic agents for treatment of osteoporosis using mitogenic indices” (co.don Aktiengesellschaft, priority 1995, dated 2004) one finds Absorbance mean value data, which are given here for 2 substances.

In this assay the test system is human osteoblast precursor cells. Kind of assay: Cell proliferation rate under the influence of growth factors, using bromodeoxyuridine incorporation (BrdU incorporation). Type of assay: cell-based. The following applies: 54 h incubation + 18 h BrdU labelling, OD at 405 nm. The procedure: 3,000 osteoblastic cells from fractions t1 to 2 up to the second passage, recovered from osteoporotic patients (OP cells), per well of a 96-well microwell plate were incubated in the presence of 10% FCS and 10% inactivated human control serum in a cell culture medium (α-MEM and HAM-S F12 medium […]) for 48 h, 120 h and 192 h. In parallel, 3,000 osteoblastic cells from non-osteoporotic patients were incubated under the same conditions. The number of intact cells was determined by means of trypan blue staining and counting in a counting chamber. 4. Determination of the cell proliferation rate under the influence of the three growth factors 1, 2 and 3 using bromodeoxyuridine incorporation (BrdU incorporation) Growth factor 1 =TGF-β2
Cells from fraction 1 and/or 2 of each punched-out bone piece up to the 2nd passage were used in the proliferation test.
3 ×10^3 cells from the first and/or second passage per well of a 96-well plate and 200 μl of medium were used.
The cells were cultivated for three days under the conditions previously described and subsequently cultivated further for one day in medium with no serum until subconfluence was reached.
Thereafter, the three growth factors 1, 2 and 3 were added to the cells at four different final concentrations (100, 10, 1, and 0.1 ng/ml medium).
Cells in a medium containing 10% FKS and in a medium containing 5% Ultroser served as controls.
Triplets were set up for all concentrations and controls.
Six wells including cells, to which no bromodeoxyuridine had been added during the proliferation test served as blank controls.
After 54 hours of incubation with the growth factors, the proliferation test (5-Bromo-2′-deoxyuridine Labeling and Detection Kit III by Boehringer Mannheim) was initiated by adding 20 μl of labelling solution diluted 1:90 in 1% BSA medium and subsequent incubation for 18 hours.
The proliferation test was conducted according to the manufacturer's instructions.
Evaluation of the proliferation test was effected by measuring the optical density (OD) at 405 nm in an ELISA reader. After 60 minutes of color development, the absorbance was measured 12 times at intervals of 5 minutes.

For the substance “IGF II: protein growth factor 3 (insulin-like growth factor II)”, the Absorbance mean value runs as follows: (0.1 ng/ml medium) 0.148; (1 ng/ml medium) 0.150; (10 ng/ml medium) 0.139; (100 ng/ml medium) 0.140.

As for “IGF I: protein growth factor 2 (insulin-like growth factor I)”, the Absorbance mean value was 0.151 (0.1 ng/ml medium), 0.148 (1 ng/ml medium), 0.140 (10 ng/ml medium) and 0.140 (100 ng/ml medium).
